Test system: Genes belonging to other category
Test: DNA chip mRNA expression in yeast, genes belonging to other category (Table 9)
Type: cell-based, Saccharomyces cerevisiae S288C
Description: Yeast (Saccharomyces cerevisiae S288C (α SUC2mal mel gap2 CUP1)) were incubated at 25° C. on YPD medium (yeast extract 1%, polypepton 2%, glucose 2%). One of toxic chemical substances was added to the cells at logarithmic growth phase, and the cells were further incubated for two hours. Cells were cultured without any chemical substance in the same condition, and were used as control. Concentrations of the chemical substances were defined to inhibit the growth of the yeast but not lead to death.
After completion of the incubation, the culture was centrifuged to collect the cells. To the cells, sodium acetate buffer (50 mM sodium acetate, 10 mM EDTA, 1% SDS) was added, and the mixture was shaken at 65° C. for five minutes, followed by returning to room temperature, and obtaining the supernatant, of which the procedures were repeated two times. To the supernatant, ½ amount of a solution of phenol/chloroform was added, and the mixture was centrifuged to give a supernatant, which was added with an equal amount of chloroform, and the mixture was centrifuged to give a supernatant. To the supernatant, an equal amount of isopropanol containing 0.3 M sodium acetate was added, and the mixture was allowed to stand at room temperature for 30 minutes, after which the mixture was centrifuged to give a sediment of the whole RNAs. Seventy % ethanol was added to the sediment, and the mixture was again centrifuged to give a sediment, which was then dried and dissolved in water. mRNA was isolated from the whole RNAs as followings. In view of the fact that a poly A chain is attached to the 3′ terminus of mRNA, a polynucleotide having a poly T structure which was immobilized on the surface of latex beads was used to trap the mRNA, and then the mRNA was washed and eluted with spine column (Oligotex-dT30<Super>mRNA Purification Kit, Takara). Reverse transcription of the mRNA was conducted with a reverse transcriptase (Super Script II Reverse Transcriptase; catalogue No. 18064-014, GibcoBRL) using fluorescence-labeled nucleotides to give cDNAs that were introduced with Cy3-dUTP or Cy5-dUTP during the reverse transcription.
The labeled cDNAs were dissolved in TE buffer (10mM Tris-HCl/1 mM EDTA, pH8.0), and the solution was dropped on the DNA chip containing the whole genes of yeast (DNA Chip Research Inc. Japan) so that the cDNAs were hybridized on the DNA chip at 65° C. for over 12 hours. The fluoresces intensity of the DNA chip was read with a scanner, and the ratio relative to the fluorescence intensity resulting from the absence of chemical substance was estimated as the following, which is shown in Tables 1 to 9: […]

## CCCCCCCCCCCCOS(=O)(=O)[O-].[Na+] [(18), sodium lauryl sulfate]
Yeast gene YMR219W
  The level of expressed mRNA in the presence of chemical substance/The level of expressed mRNA in the absence of chemical substance: 0.9
Yeast gene YMR226C
  The level of expressed mRNA in the presence of chemical substance/The level of expressed mRNA in the absence of chemical substance: 2.0
Yeast gene YMR275C
  The level of expressed mRNA in the presence of chemical substance/The level of expressed mRNA in the absence of chemical substance: 0.7
Yeast gene YMR276W
  The level of expressed mRNA in the presence of chemical substance/The level of expressed mRNA in the absence of chemical substance: 0.7
Yeast gene YMR297W
  The level of expressed mRNA in the presence of chemical substance/The level of expressed mRNA in the absence of chemical substance: 1.4
Yeast gene YMR314W
  The level of expressed mRNA in the presence of chemical substance/The level of expressed mRNA in the absence of chemical substance: 1.6
Yeast gene YNL006W
  The level of expressed mRNA in the presence of chemical substance/The level of expressed mRNA in the absence of chemical substance: 1.3
Yeast gene YNL007C
  The level of expressed mRNA in the presence of chemical substance/The level of expressed mRNA in the absence of chemical substance: 1.0
Yeast gene YNL036W
  The level of expressed mRNA in the presence of chemical substance/The level of expressed mRNA in the absence of chemical substance: 1.9
Yeast gene YNL093W
  The level of expressed mRNA in the presence of chemical substance/The level of expressed mRNA in the absence of chemical substance: 3.1
Yeast gene YNL196C
  The level of expressed mRNA in the presence of chemical substance/The level of expressed mRNA in the absence of chemical substance: 1.2
Yeast gene YNL333W
  The level of expressed mRNA in the presence of chemical substance/The level of expressed mRNA in the absence of chemical substance: 1.1
Yeast gene YNL335W
  The level of expressed mRNA in the presence of chemical substance/The level of expressed mRNA in the absence of chemical substance: 1.1
Yeast gene YNR006W
  The level of expressed mRNA in the presence of chemical substance/The level of expressed mRNA in the absence of chemical substance: 1.2
Yeast gene YNR010W
  The level of expressed mRNA in the presence of chemical substance/The level of expressed mRNA in the absence of chemical substance: 2.3
Yeast gene YNR069C
  The level of expressed mRNA in the presence of chemical substance/The level of expressed mRNA in the absence of chemical substance: 0.9
Yeast gene YOL005C
  The level of expressed mRNA in the presence of chemical substance/The level of expressed mRNA in the absence of chemical substance: 1.2
Yeast gene YOL013C
  The level of expressed mRNA in the presence of chemical substance/The level of expressed mRNA in the absence of chemical substance: 1.4
Yeast gene YOL016C
  The level of expressed mRNA in the presence of chemical substance/The level of expressed mRNA in the absence of chemical substance: 3.8
Yeast gene YOL152W
  The level of expressed mRNA in the presence of chemical substance/The level of expressed mRNA in the absence of chemical substance: 1.2
Yeast gene YOL164W
  The level of expressed mRNA in the presence of chemical substance/The level of expressed mRNA in the absence of chemical substance: 1.3
Yeast gene YOR003W
  The level of expressed mRNA in the presence of chemical substance/The level of expressed mRNA in the absence of chemical substance: 1.1
Yeast gene YOR036W
  The level of expressed mRNA in the presence of chemical substance/The level of expressed mRNA in the absence of chemical substance: 1.7
Yeast gene YOR117W
  The level of expressed mRNA in the presence of chemical substance/The level of expressed mRNA in the absence of chemical substance: 0.9
Yeast gene YOR124C
  The level of expressed mRNA in the presence of chemical substance/The level of expressed mRNA in the absence of chemical substance: 1.0
Yeast gene YOR132W
  The level of expressed mRNA in the presence of chemical substance/The level of expressed mRNA in the absence of chemical substance: 1.6
Yeast gene YOR133W
  The level of expressed mRNA in the presence of chemical substance/The level of expressed mRNA in the absence of chemical substance: 1.2
Yeast gene YOR157C
  The level of expressed mRNA in the presence of chemical substance/The level of expressed mRNA in the absence of chemical substance: 1.2
Yeast gene YOR181W
  The level of expressed mRNA in the presence of chemical substance/The level of expressed mRNA in the absence of chemical substance: 0.6
Yeast gene YOR185C
  The level of expressed mRNA in the presence of chemical substance/The level of expressed mRNA in the absence of chemical substance: 1.1
Yeast gene YOR198C
  The level of expressed mRNA in the presence of chemical substance/The level of expressed mRNA in the absence of chemical substance: 1.5
Yeast gene YOR259C
  The level of expressed mRNA in the presence of chemical substance/The level of expressed mRNA in the absence of chemical substance: 1.5
Yeast gene YOR261C
  The level of expressed mRNA in the presence of chemical substance/The level of expressed mRNA in the absence of chemical substance: 1.9
Yeast gene YOR265W
  The level of expressed mRNA in the presence of chemical substance/The level of expressed mRNA in the absence of chemical substance: 1.2
Yeast gene YOR288C
  The level of expressed mRNA in the presence of chemical substance/The level of expressed mRNA in the absence of chemical substance: 1.6
Yeast gene YOR355W
  The level of expressed mRNA in the presence of chemical substance/The level of expressed mRNA in the absence of chemical substance: 0.9
Yeast gene YOR383C
  The level of expressed mRNA in the presence of chemical substance/The level of expressed mRNA in the absence of chemical substance: 1.1
Yeast gene YPL001W
  The level of expressed mRNA in the presence of chemical substance/The level of expressed mRNA in the absence of chemical substance: 1.2
Yeast gene YPL089C
  The level of expressed mRNA in the presence of chemical substance/The level of expressed mRNA in the absence of chemical substance: 1.1
Yeast gene YPL109C
  The level of expressed mRNA in the presence of chemical substance/The level of expressed mRNA in the absence of chemical substance: 1.2
Yeast gene YPL124W
  The level of expressed mRNA in the presence of chemical substance/The level of expressed mRNA in the absence of chemical substance: 1.2
Yeast gene YPL149W
  The level of expressed mRNA in the presence of chemical substance/The level of expressed mRNA in the absence of chemical substance: 2.9
Yeast gene YPL154C
  The level of expressed mRNA in the presence of chemical substance/The level of expressed mRNA in the absence of chemical substance: 2.0
Yeast gene YPL220W
  The level of expressed mRNA in the presence of chemical substance/The level of expressed mRNA in the absence of chemical substance: 1.1
Yeast gene YPR066W
  The level of expressed mRNA in the presence of chemical substance/The level of expressed mRNA in the absence of chemical substance: 1.2
Yeast gene YPR086W
  The level of expressed mRNA in the presence of chemical substance/The level of expressed mRNA in the absence of chemical substance: 1.2
Yeast gene YPR103W
  The level of expressed mRNA in the presence of chemical substance/The level of expressed mRNA in the absence of chemical substance: 1.5
Yeast gene YPR108W
  The level of expressed mRNA in the presence of chemical substance/The level of expressed mRNA in the absence of chemical substance: 1.3
